# The source made the active and inactive calls. No cut-off for these calls is given here.
# What was measured:
# [1] = system: Influenza A virus (A/Anhui/1/2005(H5N1)); experiment: Inhibition of Influenza A virus (A/Anhui/1/2005(H5N1) Neuraminidase using MUNANA as substrate at 100 uM preincubated for 5 to 15 mins followed by substrate addition and measured after 30 mins by fluorescence spectrophotometric method; settings: time 35-45 min
# [2] = system: Influenza A virus (A/Anhui/1/2005(H5N1)); experiment: Inhibition of Influenza A virus (A/Anhui/1/2005(H5N1) Neuraminidase using MUNANA as substrate at 10 uM preincubated for 5 to 15 mins followed by substrate addition and measured after 30 mins by fluorescence spectrophotometric method; settings: time 35-45 min
# [3] = Oral bioavailability in rat; type: ADME, organism-based; settings: in vivo
# [4] = Inhibition of Influenza A virus (A/Anhui/1/2005(H5N1) Neuraminidase using MUNANA as substrate preincubated for 5 to 15 mins followed by substrate addition and measured after 30 mins by fluorescence spectrophotometric method
# [5] = human, plasma
# in vitro [6] = settings: human, plasma
# [7] = Oral bioavailability in ferret; type: ADME, organism-based, Mustela putorius furo; settings: in vivo
# in vitro [8] = settings: human, liver microsomes
# in vitro [9] = settings: mouse, liver microsomes
# in vitro [10] = settings: human, plasma; remark: listed apart in the source
# [11] = AUC in Sprague-Dawley rat at 50 mg/kg, po measured for 24 hrs by LC-MS/MS analysis; type: ADME, organism-based; set-up: time 24 hrs, dose 50 mg/kg; settings: in vivo
# in vitro [12] = settings: rat, liver microsomes
# in vitro [13] = settings: human, plasma; remark: listed apart in the source
# [14] = Bioavailability in Sprague-Dawley rat at 10 mg/kg, iv measured for 24 hrs by LC-MS/MS analysis; type: ADME, organism-based; settings: in vivo
# in vitro [15] = settings: human, liver microsomes; remark: listed apart in the source
# [16] = Inhibition of Influenza A virus (A/California/04/2009 (H1N1)) Neuraminidase using MUNANA as substrate preincubated for 5 to 15 mins followed by substrate addition and measured after 30 mins by fluorescence spectrophotometric method
# [17] = Half life in Sprague-Dawley rat at 50 mg/kg, po measured for 24 hrs by LC-MS/MS analysis; type: ADME, organism-based; settings: in vivo
# in vivo = settings: Sprague-Dawley, rat, iv, 10 mg/kg
# in vitro [18] = settings: mouse, liver microsomes; remark: listed apart in the source
# [19] = Tmax in Sprague-Dawley rat at 50 mg/kg, po by LC-MS/MS analysis; type: ADME, organism-based; settings: in vivo
# in vitro [20] = settings: rat, liver microsomes; remark: listed apart in the source
# [21] = Inhibition of Influenza A virus (A/Babol/36/2005 (H3N2)) Neuraminidase using MUNANA as substrate preincubated for 5 to 15 mins followed by substrate addition and measured after 30 mins by fluorescence spectrophotometric method
# [22] = human, plasma, 2 h
# [23] = Cmax in Sprague-Dawley rat at 50 mg/kg, po measured for 24 hrs by LC-MS/MS analysis; type: ADME, organism-based; set-up: route oral, dose 50 mg/kg, time 24 hrs; settings: in vivo
# [24] = AUC in Sprague-Dawley rat at 10 mg/kg, iv measured for 24 hrs by LC-MS/MS analysis; type: ADME, organism-based; set-up: dose 10 mg/kg, time 24 hrs; settings: in vivo
# [25] = Oral bioavailability in Sprague-Dawley rat at 50 mg/kg measured for 24 hrs by LC-MS/MS analysis; type: ADME, organism-based; settings: in vivo
# [26] = Tmax in Sprague-Dawley rat at 10 mg/kg, po by LC-MS/MS analysis; type: ADME, organism-based; settings: in vivo
# [27] = Cmax in Sprague-Dawley rat at 10 mg/kg, po measured for 24 hrs by LC-MS/MS analysis; type: ADME, organism-based; set-up: route oral, dose 10 mg/kg, time 24 hrs; settings: in vivo
# [28] = AUC in Sprague-Dawley rat at 10 mg/kg, po measured for 24 hrs by LC-MS/MS analysis; type: ADME, organism-based; set-up: time 24 hrs, dose 10 mg/kg; settings: in vivo
compound,measurement,setting,value
CCC(CC)O[C@@H]1C=C(C(=O)O)C[C@H](NC(=O)N2CCCCC2)[C@H]1NC(C)=O,inhibition,[1],56.4%
same,inhibition,[2],25.6%
CCC(CC)O[C@@H]1C=C(C(=O)O)C[C@H](NC(=O)Nc2cc(OC)c(OC)c(OC)c2)[C@H]1NC(C)=O,inhibition,[1],16.4%
same,inhibition,[2],inactive
CCC(CC)O[C@@H]1C=C(C(=O)O)C[C@H](NC(=O)Nc2ccccc2)[C@H]1NC(C)=O,inhibition,[1],32.6%
same,inhibition,[2],17.6%
CO[C@@H]([C@@H]1OC(C(=O)O)=C[C@H](NC(=N)N)[C@H]1NC(C)=O)[C@H](O)CO,bioavailability,[3],3.5%
CCC(CC)O[C@@H]1C=C(C(=O)O)C[C@H](NC(=S)NC)[C@H]1NC(C)=O,IC50,[4]; read-out: IC50,18.6 µM
CC(C)[N+](C)(CCOC(=O)C1c2ccccc2Oc2ccccc21)C(C)C.[Br-] [PROPANTHELINE BROMIDE],Stabilty,[5],100%
same,remaining at 10 min,in vitro [6],68.2%
CCC(CC)O[C@@H]1C=C(C(=O)O)C[C@H](NC(=O)NCc2ccc(OC)cc2)[C@H]1NC(C)=O,inhibition,[1],36.5%
same,inhibition,[2],inactive
CCC(CC)[C@H](NC(C)=O)[C@@H]1[C@H](O)[C@@H](C(=O)O)C[C@H]1NC(=N)N [PERAMIVIR ANHYDROUS],bioavailability,[7],2.5%
CCC(CC)O[C@@H]1C=C(C(=O)O)C[C@H](NC(=O)NCc2ccccc2)[C@H]1NC(C)=O,inhibition,[1],35.1%
same,inhibition,[2],6.8%
CCC(CC)O[C@@H]1C=C(C(=O)O)C[C@H](NC(N)=O)[C@H]1NC(C)=O,remaining at 1 h,in vitro [8],99.1%
same,remaining at 1 h,in vitro [9],100%
same,IC50,[4]; read-out: IC50,0.254 µM
same,remaining at 0.5 h,in vitro [10],99.1%
same,AUC at 24 h,[11],10300 ng·h/mL
same,remaining at 1 h,in vitro [12],85.5%
same,remaining at 1 h,in vitro [13],102%
same,F,[14],100%
same,half-life at 1 h,in vitro [15],> 145 min
same,IC50,[16],8.7 µM
same,Stabilty,[5],100%
same,half-life,[17],597 min
same,half-life at 24 h,in vivo,124 min
same,half-life at 1 h,in vitro [18],> 145 min
same,Tmax,[19],45 min
same,half-life at 1 h,in vitro [20],> 145 min
same,IC50,[21],169 nM
same,Stabilty,[22],122.6%
same,remaining at 10 min,in vitro [6],101%
same,Cmax,[23],3670 ng/mL
same,AUC at 24 h,[24],23200 ng·h/mL
same,bioavailability,[25],8.8%
CCC(CC)O[C@@H]1C=C(C(=O)O)C[C@H](NC(=S)NC2CC2)[C@H]1NC(C)=O,inhibition,[1],29.2%
same,inhibition,[2],8.7%
CCC(CC)O[C@@H]1C=C(C(=O)O)C[C@H](N)[C@H]1NC(C)=O [OSELTAMIVIR CARBOXYLATE],IC50,[4],0.21 µM
same,F,[14],100%
same,IC50,[16],2.5 µM
same,Tmax,[26],4 h
same,half-life at 24 h,in vivo,96 min
same,Cmax,[27],30 ng/mL
same,IC50,[21],41.7 nM
same,AUC at 24 h,[24],8400 ng·h/mL
same,AUC at 24 h,[28],300 ng·h/mL
CCC(CC)O[C@@H]1C=C(C(=O)O)C[C@H](NC(=O)N(C)C)[C@H]1NC(C)=O,IC50,[4]; read-out: IC50,4.83 µM
CCC(CC)O[C@@H]1C=C(C(=O)O)C[C@H](NC(N)=S)[C@H]1NC(C)=O,inhibition,[1],51.3%
same,inhibition,[2],16.9%
CCC(CC)O[C@@H]1C=C(C(=O)O)C[C@H](NC(=S)Nc2ccccc2)[C@H]1NC(C)=O,inhibition,[1],47.1%
same,inhibition,[2],16.6%
CCC(CC)O[C@@H]1C=C(C(=O)O)C[C@H](NC(=S)NCc2ccc(F)cc2)[C@H]1NC(C)=O,inhibition,[1],21%
same,inhibition,[2],inactive
O=C(O)Cc1ccccc1Nc1c(Cl)cccc1Cl [DICLOFENAC],half-life at 1 h,in vitro [15],11.7 min
same,half-life at 1 h,in vitro [18],44.1 min
same,half-life at 1 h,in vitro [20],12 min
CCC(CC)O[C@@H]1C=C(C(=O)O)C[C@H](NC(=S)NCc2ccc(Br)cc2)[C@H]1NC(C)=O,inhibition,[1],59.6%
same,inhibition,[2],17%
CCC(CC)O[C@@H]1C=C(C(=O)O)C[C@H](NC(=S)Nc2ccc(C)c(C)c2)[C@H]1NC(C)=O,inhibition,[1],52.4%
same,inhibition,[2],15.3%
CCC(CC)O[C@@H]1C=C(C(=O)O)C[C@H](NC(=N)N)[C@H]1NC(C)=O,bioavailability,[3],2.1%
CCC(CC)O[C@@H]1C=C(C(=O)O)C[C@H](NC(=O)NCCc2ccccc2)[C@H]1NC(C)=O,inhibition,[1],17.7%
same,inhibition,[2],inactive
CCC(CC)O[C@@H]1C=C(C(=O)O)C[C@H](NC(=O)Nc2cccc(Br)c2)[C@H]1NC(C)=O,IC50,[4]; read-out: IC50,16.9 µM
CCC(CC)O[C@@H]1C=C(C(=O)O)C[C@H](NC(=O)NC(C)C)[C@H]1NC(C)=O,inhibition,[1],32.3%
same,inhibition,[2],8.3%
CCC(CC)O[C@@H]1C=C(C(=O)O)C[C@H](NC(=S)N(C(C)C)C(C)C)[C@H]1NC(C)=O,inhibition,[1],80%
same,inhibition,[2],20%
CCC(CC)O[C@@H]1C=C(C(=O)O)C[C@H](NC(=O)NCc2ccc(C#N)cc2)[C@H]1NC(C)=O,inhibition,[1],32.5%
same,inhibition,[2],inactive
CCC(CC)O[C@@H]1C=C(C(=O)O)C[C@H](NC(=O)Nc2cccc([N+](=O)[O-])c2)[C@H]1NC(C)=O,inhibition,[1],36.9%
same,inhibition,[2],6.5%
CCC(CC)O[C@@H]1C=C(C(=O)O)C[C@H](NC(=S)NCc2cccc(F)c2)[C@H]1NC(C)=O,inhibition,[1],28.1%
same,inhibition,[2],inactive
CCC(CC)O[C@@H]1C=C(C(=O)O)C[C@H](NC(=O)N(C(C)C)C(C)C)[C@H]1NC(C)=O,inhibition,[1],63.1%
same,inhibition,[2],32.3%
